From US20240343733A1, “COMPOUNDS FOR TARGETING DEGRADATION OF IRAK4 PROTEINS” (BIOGEN MA INC., priority 2021, published 2024)

Experiments:
IRAK4 [1] = target: T1, IRAK4 (Homo sapiens, UniProt Q9NWZ3); assay: IRAK4 Degradation Assay, HiBiT Method; format: cell-based; conditions: 293T cells expressing HiBiT-tagged IRAK4, 6 hours
T1 construct: 293Tcells expressing HiBiT-tagged IRAK4 were then added into 384-well plates
T1 sequence (Q9NWZ3 1-460): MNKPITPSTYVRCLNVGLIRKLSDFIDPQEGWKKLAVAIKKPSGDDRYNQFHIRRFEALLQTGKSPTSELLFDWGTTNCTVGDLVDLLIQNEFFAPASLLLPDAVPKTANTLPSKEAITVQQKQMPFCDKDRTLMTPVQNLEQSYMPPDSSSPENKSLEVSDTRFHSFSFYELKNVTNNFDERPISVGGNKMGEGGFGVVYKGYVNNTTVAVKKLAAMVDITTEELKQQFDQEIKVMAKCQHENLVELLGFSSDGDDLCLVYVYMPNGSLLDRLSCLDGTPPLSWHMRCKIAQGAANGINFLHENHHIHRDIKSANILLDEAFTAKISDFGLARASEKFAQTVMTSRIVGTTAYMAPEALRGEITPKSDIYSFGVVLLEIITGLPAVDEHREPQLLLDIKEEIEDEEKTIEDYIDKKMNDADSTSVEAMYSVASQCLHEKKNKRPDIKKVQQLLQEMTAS
Procedure, shortened: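 293T cells with HiBiT knocked in at the C-terminus of endogenous IRAK4, 10,000 per well, treated 6 h at 37 °C with an 11-point half-log series ([…]), in duplicate. Remaining IRAK4 read by Nano-Glo HiBiT lytic luminescence against DMSO-only and media-only controls.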

IRAK4 [2] = assay: Pharmacodynamics (PD) in Male Cynomolgus Monkeys, IRAK4 quantitation in PBMCs by MSD; format: in vivo; conditions: male cynomolgus monkey PBMCs
Method: Assay 6. Pharmacodynamics (PD) in Male Cynomolgus Monkeys
For PBMC isolation, approximately 1 mL of blood sample was collected in a BD Vacutainer® EDTA Tubes (Catalog no. 36643, Becton, Dickinson and Co., Franklin Lakes, NJ, USA) with K2-EDTA and stored at room temperature (RT). The blood was diluted 1:1 with PBS at room temperature. The tube contents were mixed gently by pipetting up and down 5 times. The PBS/blood mixture was layered carefully on the top of 2 ml Ficoll® Paque Plus (Catalog no. 17-1440-03, Cytiva, Marlborough, MA, USA) in 15 mL falcon tubes, then centrifuged at RT for 30 minutes at 600 g with acceleration set at 6 and brake set at 0. The middle ‘cloudy’ interface between plasma and Ficoll® Paque Plus containing the PBMCs was transferred to a 15 mL tube and washed once with 10 mL of PBS, then centrifuged for 10 minutes at RT at 250 g. The supernatant was discarded without disturbing the cell pellet. If red blood cells were still present, 1 mL of lysis buffer was added, incubated for 2 minutes at RT, then 10 mL PBS was added to terminate lysis, and then centrifuged for 5 minutes at RT at 250 g. The supernatant was discarded without disturbing the cell pellet and stored at −80° C. until analysis.
For cell counting, the cell suspension was diluted 1:1 with Trypan Blue dye and mixed well. The cell numbers (live and dead) were counted, and cell viability calculated. The cell numbers and cell viability of each PBMC sample were recorded.
For sample preparation for MSD analysis, 2 million cells were subjected to lysis by 100 μL of RIPA lysis and extraction buffer (Catalog no 89900, ThermoScientific, Waltham, MA, USA) with phosphatase and protease inhibitors were added for 30 minutes at 4° C. To prepare RIPA lysis and extraction buffer with phosphatase and protease inhibitors, 1 tablet of cOmplete™, 1 tablet of PhosSTOP™, 100 μL each of Phosphatase Inhibitor Cocktail 2 and 3 (all catalog no. 11836153001, 4906845001, P5726 and P0044 respectively, Sigma Aldrich, St. Louis, MO, USA) were mixed with 10 mL RIPA buffer. The lysed PBMC samples were stored at −80° C. until analysis. Samples were completely thawed before being subjected to MSD analysis. The data was normalized using protein concentration and PBMC cell numbers, separately, for comparison.
For biomarker detection of IRAK4 in samples, MSD® or Meso Scale Discovery® biomarker assays technology was utilized, which is an ELISA-based method.
For the capture or coating step, 100 μL of IRAK4 Monoclonal Antibody (2H9) (Fisher, Catalog no. MA5-15883) was added to 96 well MSD multi-array 96 well plate (MSD Catalog no. L15XA-3, MSD multi-array 96 well plate). The plate was sealed and incubated overnight at 2-8° C. The plate was washed 5×300 μL/well with tris buffered saline wash buffer. 300 μL of blocking Buffer (3% BSA in 0.1% PBST) (Wuxi, Catalog no. BB-20211112-YJC) was added. The plate was sealed and incubated for 2 h±10 minutes at room temperature without shaking. The plate was washed 5×300 μL/well with tris buffered saline wash buffer. 100 μL of standard and samples were added into each well. The plate was sealed and incubated for 1 h 10 minutes at room temperature with shaking at 500 rpm. The plate was washed 5×300 μL/well with tris buffered saline wash buffer. 100 μL of detection solution containing IRAK4 antibody (Catalog no. 4363, Cell Signaling Technology, Danvers, MA, USA) was added into each well. The plate was sealed and incubated for 1 h 10 min at RT with shaking at 500 RPM. The plate was washed 5×300 μL/well with tris buffered saline wash buffer. 100 μL of sulfotag solution containing Sulfo-Tag labeled anti-rabbit antibody (Goat) (Catalog no. R32AB-1, Meso Scale Diagnostics, Rockville, MD, USA) was added into each well. The plate was sealed and incubated for 1 h+10 minutes at room temperature with shaking at 500 RPM. The plate was washed 5×300 […] with tris buffered saline wash buffer. […]

DC50 (IRAK4 [1])	Structure (SMILES)	IRAK4 change from vehicle (IRAK4 [2]; time 2 h)	IRAK4 change from vehicle (IRAK4 [2]; time 8 h)	IRAK4 change from vehicle (IRAK4 [2]; time 24 h)	IRAK4 change from vehicle (IRAK4 [2]; time 48 h)	IRAK4 change from vehicle (IRAK4 [2]; time 72 h)	IRAK4 change from vehicle (IRAK4 [2]; time 96 h)
< 10 nM	CC(C)Oc1cc2nc([C@H]3CC[C@H](CN4CCC(c5ccc6c(c5)n(C)c(=O)n6C5CCC(=O)NC5=O)CC4)CC3)cn2cc1C(=O)Nc1cnn2cccnc12 (some centres unmarked) [Compound 48, 2-[4-[[4-[1-(2,6-dioxo-3-piperidyl)-3-methyl-2-oxo-benzimidazol-5-yl]-1-piperidyl]methyl]cyclohexyl]-7-isopropoxy-N-pyrazolo[1,5-a]pyrimidin-3-yl-imidazo[1,2-a]pyridine-6-carboxamide]	−50%	−87%	−96%	−94%	−94%	−87%
< 10 nM	CC(C)Oc1cc2nc([C@H]3CC[C@H](CN4CCC(c5ccc6c(c5)n(C)c(=O)n6C5CCC(=O)NC5=O)CC4)CC3)cn2cc1C(=O)Nc1cccn([C@H]2C[C@H]2F)c1=O (stereo partly drawn) [Compound 169, 2-((1R,4S)-4-((4-(1-(2,6-dioxopiperidin-3-yl)-3-methyl-2-oxo-2,3-dihydro-1H-benzo[d]imidazol-5-yl)piperidin-1-yl)methyl)cyclohexyl)-N-(1-((1S,2R)-2-fluorocyclopropyl)-2-oxo-1,2-dihydropyridin-3-yl)-7-isopropoxyimidazo[1,2-a]pyridine-6-carboxamide]	−62%	−83%	−97%	−97%	−94%	−90%
